This assay concerns Staphylococcus aureus, Escherichia coli and Pseudomonas aeruginosa. In words: preservative efficacy test, judgment of immediate effectiveness over all microbial species. It is filed as cell-based. As to the method:
As the test microorganism, Staphylococcus aureus (ATCC 6538), Escherichia coli (ATCC 8739) and Pseudomonas aeruginosa (ATCC 9027) were used. Each test microorganism was inoculated on the surface of a slant agar medium and precultured. The preculture was conducted using a soybean casein digest agar medium at 30-35° C. for 18-24 hr.
An emulsion composition to be subjected to the test was used as a sample, and the sample was dispensed to 5 sterilized stoppered test tubes by 10 mL each. A precultured test microorganism was added to the sample such that the cell count was 10^5-10^6 cells/mL to give a mixed sample. The test microorganism was singly added to the sample. The mixed sample was preserved at 20-25° C. with protection from light.
At 6 hr and 24 hr from the start of the preservation, 1 mL of each mixed sample was taken, and the solution was diluted with saline (9 mL). Similar dilution was performed 2-3 times and each diluted solution (1 mL) was dispensed to a sterilized petri dish, and then, 0.1 (w/v) % lecithin-0.7 (w/v) % polysorbate 80-added soybean casein digest agar medium was added to the bacteria, and the mixture was cultured at 30-35° C. for about 3 days. The colony forming units were measured, and the viable cell count per 1 mL of the mixed sample was calculated.
When the viable cell counts of all microbial species decreased by 3 log or more after 24 hr from the start of the test, an immediate effectiveness of preservative efficacy was judged to be present and the judgment was compatible. When further immediate effectiveness of preservative efficacy is demanded, it was judged to be present when the viable cell counts of all microbial species decreased by 3 log or more after 24 hr from the start of the test and the viable cell counts of all microbial species decreased by 2 log or more after 6 hr from the start of the test, and the judgment was compatible.

Setting [1] is: added as preservative to difluprednate emulsion composition.

Consider 5 compounds from US20150366879A1, “DIFLUPREDNATE EMULSION COMPOSITION CONTAINING ANTIMICROBIAL METAL” (SENJU PHARMACEUTICAL CO., LTD., priority 2013, published 2015).

Structures can show the parent of a compound that is named as a salt. Where two headings read alike, the source gives them in different places.

For the compound benzalkonium chloride, the “immediate effectiveness of preservative efficacy” value under setting [1] is given as “not found”.
For `O=S(=O)([O-])[O-].[Cu+2]` [copper sulfate], the “concentration at which excellent immediate effectiveness of preservative efficacy was obtained” value is “not less than 0.0005 (w/v) %”.
Consider `O=[N+]([O-])[O-].[Ag+]` [silver nitrate], for which the “concentration at which further (excellent) immediate effectiveness was found” value (as silver ion, 6 hr and 24 hr criteria, in difluprednate emulsion) is recorded as “not less than 0.005 (w/v) %”. Also, the “concentration at which immediate effectiveness of preservative efficacy was found” value (as silver ion, 24 hr criterion, in difluprednate emulsion) is on record as “not less than 0.0005 (w/v) %”.
`Oc1cccc2cccnc12` [oxyquinoline sulfate]: the “immediate effectiveness of preservative efficacy” value is recorded as “not found”.
`C/C=C/C=C/C(=O)O` [sorbic acid]: under setting [1], the “immediate effectiveness of preservative efficacy” value was “not found”.
